One may read the IC50 as the concentration that inhibits the measured activity by half.

T1 sequence (P31749 whole entry E17K): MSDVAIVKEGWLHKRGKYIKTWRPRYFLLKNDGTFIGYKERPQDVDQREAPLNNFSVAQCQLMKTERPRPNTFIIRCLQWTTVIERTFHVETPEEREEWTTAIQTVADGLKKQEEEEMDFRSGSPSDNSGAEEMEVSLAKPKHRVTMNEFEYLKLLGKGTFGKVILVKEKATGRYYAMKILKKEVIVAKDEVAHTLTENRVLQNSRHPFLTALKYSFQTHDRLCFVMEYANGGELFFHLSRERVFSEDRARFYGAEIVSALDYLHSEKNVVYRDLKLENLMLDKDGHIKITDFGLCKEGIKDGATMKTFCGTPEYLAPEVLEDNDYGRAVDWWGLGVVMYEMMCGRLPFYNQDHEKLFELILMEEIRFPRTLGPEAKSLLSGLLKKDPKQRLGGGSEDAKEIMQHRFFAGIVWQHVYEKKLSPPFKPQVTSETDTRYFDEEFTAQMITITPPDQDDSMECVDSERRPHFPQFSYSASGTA

The assay has as its target T1, full length AKT E17K (Homo sapiens, UniProt P31749, E17K).
T1 construct: host or cells: HEK-293 (ATCC CRL-1573)
The assay is described as follows: NanoBRET Target Engagement (TE) Assay. The format is cell-based. The conditions noted are these: competitive tracer displacement in living cells, read-out: AKT1 E17K IC50. Put shortly:
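Compound and tracer incubated 2 h before luminescence at donor 450 nm and acceptor 600 nm, with extracellular signal inhibited. EC50 by sigmoidal variable-slope regression.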
On the technique in general: BRET reads energy transfer from a luciferase to a nearby fluorophore.
Consider `N#Cc1ncnc(NC2CC3(CCN(Cc4ccc(-n5c(-c6cccnc6N)nc6ccc(-c7ccccc7)nc65)cc4)CC3)C2)n1` [Example 248, 4-((7-(4-(2-(2-aminopyridin-3-yl)-5-phenyl-3H-imidazo[4,5-b]pyridin-3-yl)benzyl)-7-azaspiro[3.5]nonan-2-yl)amino)-1,3,5-triazine-2-carbonitrile], for which the IC50 is below 15 nM. The figure for `N#Cc1ncnc(N2CC3(CCN(Cc4ccc(-n5c(-c6cccnc6N)nc6ccc(-c7ccccc7)nc65)cc4)CC3)C2)n1` [Example 249, 4-(7-(4-(2-(2-aminopyridin-3-yl)-5-phenyl-3H-imidazo[4,5-b]pyridin-3-yl)benzyl)-2,7-diazaspiro[3.5]nonan-2-yl)-1,3,5-triazine-2-carbonitrile] is 15 to 60 nM; for `N#Cc1ncnc(N2CCCN(Cc3ccc(-n4c(-c5cccnc5N)nc5ccc(-c6ccccc6)nc54)cc3)CC2)n1` [Example 250, 4-(4-(4-(2-(2-Aminopyridin-3-yl)-5-phenyl-3H-imidazo[4,5-b]pyridin-3-yl)benzyl)-1,4-diazepan-1-yl)-1,3,5-triazine-2-carbonitrile] it is 15 to 60 nM. For `N#Cc1ncnc(N2CCC3(CCN(Cc4ccc(-n5c(-c6cccnc6N)nc6ccc(-c7ccccc7)nc65)cc4)C3)C2)n1` (stereo not shown) [Example 251, 4-(7-(4-(2-(2-aminopyridin-3-yl)-5-phenyl-3H-imidazo[4,5-b]pyridin-3-yl)benzyl)-2,7-diazaspiro[4.4]nonan-2-yl)-1,3,5-triazine-2-carbonitrile], the concentration for half-maximal inhibition (IC50) was below 15 nM.

Turning to `N#Cc1ncnc(N2CCC3(CCN(Cc4ccc(-n5c(-c6cccnc6N)nc6ccc(-c7ccccc7)nc65)cc4)C3)CC2)n1` [Example 252, 4-(2-(4-(2-(2-Aminopyridin-3-yl)-5-phenyl-3H-imidazo[4,5-b]pyridin-3-yl)benzyl)-2,8-diazaspiro[4.5]decan-8-yl)-1,3,5-triazine-2-carbonitrile], the IC50 lay within 15 to 60 nM. The figure for `N#Cc1ncnc(N2CCCC3(CCN(Cc4ccc(-n5c(-c6cccnc6N)nc6ccc(-c7ccccc7)nc65)cc4)C3)C2)n1` (stereo not shown) [Example 253, 4-(2-(4-(2-(2-Aminopyridin-3-yl)-5-phenyl-3H-imidazo[4,5-b]pyridin-3-yl)benzyl)-2,7-diazaspiro[4.5]decan-7-yl)-1,3,5-triazine-2-carbonitrile] is 15 to 60 nM.

As for `N#Cc1ncnc(N2CCCC3(CCN(Cc4ccc(-n5c(-c6cccnc6N)nc6ccc(-c7ccccc7)nc65)cc4)CC3)C2)n1` [Example 254, 4-(9-(4-(2-(2-Aminopyridin-3-yl)-5-phenyl-3H-imidazo[4,5-b]pyridin-3-yl)benzyl)-2,9-diazaspiro[5.5]undecan-2-yl)-1,3,5-triazine-2-carbonitrile], the IC50 was below 15 nM. For `N#Cc1ncnc(N2CC[C@@]3(CCN(Cc4ccc(-n5c(-c6cccnc6N)nc6ccc(-c7ccccc7)nc65)cc4)C3)C2)n1` [Example 255, (R)-4-(7-(4-(2-(2-aminopyridin-3-yl)-5-phenyl-3H-imidazo[4,5-b]pyridin-3-yl)benzyl)-2,7-diazaspiro[4.4]nonan-2-yl)-1,3,5-triazine-2-carbonitrile], the 50% inhibitory concentration (IC50) was below 15 nM. In the case of `C[C@@H]1CN(Cc2ccc(-n3c(-c4cccnc4N)nc4ccc(-c5ccccc5)nc43)cc2)C[C@@H](C)N1c1ncnc(C#N)n1` [Example 256, 4-((2R,6R)-4-(4-(2-(2-Aminopyridin-3-yl)-5-phenyl-3H-imidazo[4,5-b]pyridin-3-yl)benzyl)-2,6-dimethylpiperazin-1-yl)-1,3,5-triazine-2-carbonitrile], the IC50 is 15 to 60 nM. Take `N#Cc1ncnc(N2CC3CCC2CN3Cc2ccc(-n3c(-c4cccnc4N)nc4ccc(-c5ccccc5)nc43)cc2)n1` (stereo not shown) [Example 257, 4-(5-(4-(2-(2-Aminopyridin-3-yl)-5-phenyl-3H-imidazo[4,5-b]pyridin-3-yl)benzyl)-2,5-diazabicyclo[2.2.2]octan-2-yl)-1,3,5-triazine-2-carbonitrile]: the half-inhibitory concentration (IC50) lay in the range of 15 to 60 nM.

On to `N#Cc1nccc(N2CCN(Cc3ccc(-n4c(-c5cccnc5N)nc5ccc(C6CC6)nc54)cc3)CC2)n1` [Example 258, 4-(4-(4-(2-(2-Aminopyridin-3-yl)-5-cyclopropyl-3H-imidazo[4,5-b]pyridin-3-yl)benzyl)piperazin-1-yl)pyrimidine-2-carbonitrile], for which the IC50 was below 15 nM. The figure for `N#Cc1nccc(N2CCN(Cc3ccc(-n4c(-c5cccnc5N)nc5ccc(-c6ccc[nH]c6=O)nc54)cc3)CC2)n1` [Example 259, 4-(4-(4-(2-(2-Aminopyridin-3-yl)-5-(2-oxo-1,2-dihydropyridin-3-yl)-3H-imidazo[4,5-b]pyridin-3-yl)benzyl)piperazin-1-yl)pyrimidine-2-carbonitrile] is below 15 nM; for `Cn1cccc(-c2ccc3nc(-c4cccnc4N)n(-c4ccc(CN5CCN(c6ccnc(C#N)n6)CC5)cc4)c3n2)c1=O` [Example 260, 4-(4-(4-(2-(2-aminopyridin-3-yl)-5-(1-methyl-2-oxo-1,2-dihydropyridin-3-yl)-3H-imidazo[4,5-b]pyridin-3-yl)benzyl)piperazin-1-yl)pyrimidine-2-carbonitrile] it is 15 to 60 nM; for `Cn1cccc(-c2ccc3nc(-c4cccnc4N)n(-c4ccc(CN5CCC(Nc6ccnc(C#N)n6)CC5)cc4)c3n2)c1=O` [Example 261, 4-((1-(4-(2-(2-Aminopyridin-3-yl)-5-(1-methyl-2-oxo-1,2-dihydropyridin-3-yl)-3H-imidazo[4,5-b]pyridin-3-yl)benzyl)piperidin-4-yl)amino)pyrimidine-2-carbonitrile] it is below 15 nM.

With `N#Cc1nccc(NC2CCN(Cc3ccc(-n4c(-c5cccnc5N)nc5ccc(C6CCC6)nc54)cc3)CC2)n1` [Example 262, 4-((1-(4-(2-(2-aminopyridin-3-yl)-5-cyclobutyl-3H-imidazo[4,5-b]pyridin-3-yl)benzyl)piperidin-4-yl)amino)pyrimidine-2-carbonitrile], the concentration for half-maximal inhibition (IC50) was below 15 nM. To `N#Cc1nccc(NC2CCN(Cc3ccc(-n4c(-c5cccnc5N)nc5ccc(C6=CCCCC6)nc54)cc3)CC2)n1` [Example 263, 4-((1-(4-(2-(2-Aminopyridin-3-yl)-5-(cyclohex-1-en-1-yl)-3H-imidazo[4,5-b]pyridin-3-yl)benzyl)piperidin-4-yl)amino)pyrimidine-2-carbonitrile] belongs 15 to 60 nM; to `N#Cc1nccc(NC2CCN(Cc3ccc(-n4c(-c5cccnc5N)nc5ccc(C6CCCCC6)nc54)cc3)CC2)n1` [Example 264, 4-((1-(4-(2-(2-Aminopyridin-3-yl)-5-cyclohexyl-3H-imidazo[4,5-b]pyridin-3-yl)benzyl)piperidin-4-yl)amino)pyrimidine-2-carbonitrile], below 15 nM; to `N#Cc1cccc(-c2ccc3nc(-c4cccnc4N)n(-c4ccc(CN5CCC(Nc6ccnc(C#N)n6)CC5)cc4)c3n2)c1` [Example 265, 4-((1-(4-(2-(2-Aminopyridin-3-yl)-5-(3-cyanophenyl)-3H-imidazo[4,5-b]pyridin-3-yl)benzyl)piperidin-4-yl)amino)pyrimidine-2-carbonitrile], below 15 nM. For the molecule `N#Cc1nccc(NC2CCN(Cc3ccc(-n4c(-c5cccnc5N)nc5ccc(-c6ccc(=O)[nH]c6)nc54)cc3)CC2)n1` [Example 266, 4-((1-(4-(2-(2-Aminopyridin-3-yl)-5-(6-oxo-1,6-dihydropyridin-3-yl)-3H-imidazo[4,5-b]pyridin-3-yl)benzyl)piperidin-4-yl)amino)pyrimidine-2-carbonitrile], the IC50 is 60 to 600 nM. The figure for `N#Cc1nccc(NC2CCN(Cc3ccc(-n4c(-c5cccnc5N)nc5ccc(-c6cccc(=O)[nH]6)nc54)cc3)CC2)n1` [Example 267, 4-((1-(4-(2-(2-Aminopyridin-3-yl)-5-(6-oxo-1,6-dihydropyridin-2-yl)-3H-imidazo[4,5-b]pyridin-3-yl)benzyl)piperidin-4-yl)amino)pyrimidine-2-carbonitrile] is below 15 nM; for `N#Cc1ncnc(N2CCC3(CC2)CN(Cc2ccc(-n4c(-c5cccnc5N)nc5ccc(-c6ccccc6)nc54)cc2)C3)n1` [Example 268, 4-(2-(4-(2-(2-Aminopyridin-3-yl)-5-phenyl-3H-imidazo[4,5-b]pyridin-3-yl)benzyl)-2,7-diazaspiro[3.5]nonan-7-yl)-1,3,5-triazine-2-carbonitrile] it is below 15 nM.

For the molecule `N#Cc1ncnc(N2CC[C@]3(CCN(Cc4ccc(-n5c(-c6cccnc6N)nc6ccc(-c7ccccc7)nc65)cc4)C3)C2)n1` [Example 269, (S)-4-(7-(4-(2-(2-Aminopyridin-3-yl)-5-phenyl-3H-imidazo[4,5-b]pyridin-3-yl)benzyl)-2,7-diazaspiro[4.4]nonan-2-yl)-1,3,5-triazine-2-carbonitrile], the IC50 is below 15 nM. To `N#Cc1ncnc(N2C3CCC2CN(Cc2ccc(-n4c(-c5cccnc5N)nc5ccc(-c6ccccc6)nc54)cc2)C3)n1` [Example 270, 4-(3-(4-(2-(2-Aminopyridin-3-yl)-5-phenyl-3H-imidazo[4,5-b]pyridin-3-yl)benzyl)-3,8-diazabicyclo[3.2.1]octan-8-yl)-1,3,5-triazine-2-carbonitrile] belongs 60 to 600 nM. To `N#Cc1ncnc(N2CC3CCC(C2)N3Cc2ccc(-n3c(-c4cccnc4N)nc4ccc(-c5ccccc5)nc43)cc2)n1` [Example 271, 4-(8-(4-(2-(2-Aminopyridin-3-yl)-5-phenyl-3H-imidazo[4,5-b]pyridin-3-yl)benzyl)-3,8-diazabicyclo[3.2.1]octan-3-yl)-1,3,5-triazine-2-carbonitrile] belongs 15 to 60 nM; to `N#Cc1ncnc(N2C[C@H]3C[C@@H]2CN3Cc2ccc(-n3c(-c4cccnc4N)nc4ccc(-c5ccccc5)nc43)cc2)n1` [Example 272, 4-((1R,4R)-5-(4-(2-(2-aminopyridin-3-yl)-5-phenyl-3H-imidazo[4,5-b]pyridin-3-yl)benzyl)-2,5-diazabicyclo[2.2.1]heptan-2-yl)-1,3,5-triazine-2-carbonitrile], below 15 nM.

The values above are taken from patent US12209087B2, “AKT1 modulators” (Alterome Therapeutics, Inc., priority 2022, dated 2025).
